Source: PMC9879403, “Oncolytic strategy using new bifunctional HDACs/BRD4 inhibitors against virus-associated lymphomas” (PLOS Pathogens, 2023)
Read-outs that look alike come from different tables or passages of the source.

Assays:
JSC-1 = test: WST-1 cytotoxicity assay, JSC-1 (KSHV+ PEL); format: cell-based; details: 72 h
Excerpt: (§1) Fig 2 Identification of newly synthesized dual inhibitors with anti-PEL activities. (A) The binding mode of (+)-JQ1 with BRD4^BD1 (PDB: 3MXF). BRD4^BD1 is shown as hot pink cartoon with gray surface. Asn140 in BRD4^BD1 is shown as sticks and colored in following pattern: atom C hot pink, atom N dark blue, and atom O yellow. (+)-JQ1 is shown as sticks and colored in following patten: atom C hot pink, atom N dark blue, atom O yellow, atom S golden, and atom Cl green. The solvent exposed region (SEG) of (+)-JQ1 are indicated with white arrow. (B) The binding modes of SAHA and entinostat with HDAC2 (PDB: 3MAX). HDAC2 is shown as blue cartoon with gray surface. Asp181 and His183 in HDAC2 are shown as sticks and colored in following pattern: atom C blue, atom N dark blue, and atom O yellow. The catalytic zinc ion in the active site of HDAC2 is shown as black sphere. SAHA is shown as sticks and colored in following pattern: atom C green, atom N dark blue, and atom O yellow. Entinostat is shown as sticks and colored in following pattern: atom C hot pink, atom N dark blue, and atom O yellow. The SEG of SAHA or entinostat is indicated with white arrow. Hydrogen bonds (H-bonds) are presented by red dash lines. (C) The HDACs/BRD4 dual inhibitors 002-011 were designed by fusing the key pharmacophores of (+)-JQ1 (pink) and HDAC inhibitors (blue), SAHA or entinostat, via various chemical linkers (green). (D) Anti-PEL activities of the new compounds. Five KSHV positive and two KSHV negative lymphoma cell lines were treated with indicated concentrations of these compounds for 72 h. Then the cytotoxicity was determined using the WST-1 assay. (+)-JQ1, SAHA and entinostat were used for the comparisons as single inhibitors. The CC50 for each compound was calculated using GraphPad Prism 5.0 software. Error bars represent S.D. for 3 independent experiments.
(§2) Fig 4 Identification of anti-PEL activities for compound 009 stereoisomers. (A) The chemical structures of anti-HDACs/BRD4 bifunctional molecules 009P1 and 009P2, as well as anti-HDACs or anti-BRD4 mono-functional molecules 009N1, 009N2, 009N3, and 009N4. (B-C) Four KSHV+ PEL cell lines were treated with indicated concentrations of 009P1, 009P2 or 009N1-N4 for 72 h, then the cytotoxicity was determined using the WST-1 assay. (D-I) BCBL-1 cells were treated with these compounds at the respective 2× CC50 for 24 h, then cell cycle (D-F) and apoptosis (G-I) were measured by flow cytometry analysis. Error bars represent S.D. for 3 independent experiments, ** = p<0.01 (vs vehicle control).
(§3) The cell viability following treatment with compounds was assessed by the WST-1 assay (Roche, Indianapolis, Indiana, USA) according to the manufacturer’s protocol as described previously. The absorbance signal was measured using a microplate reader (Biotek Synergy 2). The 50% cytotoxic concentration (CC50) for each compound was calculated from these dose-response curves using the software GraphPad Prism v5.0. Data were normalized as the fold change compared to the DMSO control.

BCBL-1 = test: WST-1 cytotoxicity assay, BCBL-1 (KSHV+ PEL); format: cell-based; details: BCBL1, 72 h
Excerpt: as §1, §2, §3

BCP-1 = test: WST-1 cytotoxicity assay, BCP-1 (KSHV+ PEL); format: cell-based; details: BCP-1, 72 h
Excerpt: as §1, §2, §3

BRD4 = BRD4 signaling by Western blot (c-Myc expression); format: cell-based; details: BCBL-1 cells, 48 h, Western blot
BC-1 = test: WST-1 cytotoxicity assay, BC-1 (KSHV+ PEL); format: cell-based; details: Homo sapiens, BC1, 72 h
Excerpt: as §1, §2, §3

[1] = WST-1 cytotoxicity assay, BJAB (KSHV negative lymphoma); format: cell-based; details: human
Excerpt: as §1, §3

[2] = WST-1 cytotoxicity assay, BL-41 (KSHV negative lymphoma); format: cell-based; details: human
Excerpt: as §1, §3

HUVEC = test: WST-1 cytotoxicity on primary cells HUVEC; format: cell-based, human
Procedure: as §3
Supplementary file ppat.1011089.s006.tif: S5 Fig Cytotoxicity of tested compounds on HUVEC. The primary cells HUVEC were treated with indicated concentrations of compounds for 72 h, then cell viability was assessed using the WST-1 assay. The CC50 for each compound was calculated from the dose-response curves using Graphpad Prism 5.0 software. Data was normalized as the fold change compared to the DMSO control. (TIF) Click here for additional data file.

BJAB.219 = test: WST-1 cytotoxicity assay, BJAB.219 (KSHV-infected lymphoma); format: cell-based; details: 50% cytotoxic concentration, 72 h, WST-1; read-out: KSHV-infected lymphomas CC50, BJAB.219
Excerpt: as §1
BCBL-1 and iSLK.219 cells were kindly provided by Dr. Pinghui Feng (University of Southern California). BL-41, BJAB, BCP-1, BC-1, BC-3, JSC-1, HUVEC cells were purchased from American Type Culture Collection (ATCC), and cultured as recommended by the manufacturer. For making BJAB.219 cells, BJAB cells were infected with rKSHV.219 stock by spinoculation as previously reported by centrifugation at 1500×g for 60 min [31]. Then, puromycin (10 μg/ml) was added into the medium at 72 h post-infection and the medium containing puromycin was replaced twice a week. After 6-week high concentration of puromycin selection, BJAB.219 cells were then cultured in the medium with 0.5 μg/ml puromycin.
The cell viability following treatment with compounds was assessed by the WST-1 assay (Roche, Indianapolis, Indiana, USA) according to the manufacturer’s protocol as described previously. The absorbance signal was measured using a microplate reader (Biotek Synergy 2). […]

Compound | CC50 (JSC-1; read-out: CC50, JSC-1) [nM] | CC50 (BCBL-1; read-out: CC50, BCBL-1) [nM] | CC50 (BCP-1; read-out: CC50, BCP-1) [nM] | c-Myc expression (BRD4) | CC50 (BC-1; read-out: CC50, BC-1) [nM] | CC50 at 72 h [1] [nM] | CC50 (JSC-1; read-out: KSHV-infected lymphomas CC50, JSC-1) [nM] | CC50 (BCBL-1; read-out: KSHV-infected lymphomas CC50, BCBL-1) [nM] | CC50 (BCP-1; read-out: KSHV-infected lymphomas CC50, BCP-1) [nM] | CC50 at 72 h [2] [nM] | Cytotoxicity in primary cells HUVEC (HUVEC) | CC50 (BC-1; read-out: KSHV-infected lymphomas CC50, BC-1) [nM] | CC50 (BJAB.219) [nM]
COC(=O)c1ccc([C@@H](C)OC(=O)C[C@@H]2N=C(c3ccc(Cl)cc3)c3c(sc(C)c3C)-n3c(C)nnc32)cc1 [009N3, methyl 4-((R)-1-(2-((S)-4-(4-chlorophenyl)-2,3,9-trimethyl-6H-thieno[3,2-f][1,2,4]triazolo[4,3-a][1,4]diazepin-6-yl)acetoxy)ethyl)benzoate] | 9840 | 670 | 2430 | drastically downregulated | 1470 |  |  |  |  |  |  |  | 
Nc1ccccc1NC(=O)c1ccc(CNC(=O)OCc2cccnc2)cc1 [Entinostat, reference compound] |  |  |  |  |  | 420 | 150 | 170 | 200 | 570 | moderate cytotoxicity | 300 | 180
COC(=O)c1ccc([C@H](C)OC(=O)C[C@@H]2N=C(c3ccc(Cl)cc3)c3c(sc(C)c3C)-n3c(C)nnc32)cc1 [009N4, methyl 4-((S)-1-(2-((S)-4-(4-chlorophenyl)-2,3,9-trimethyl-6H-thieno[3,2-f][1,2,4]triazolo[4,3-a][1,4]diazepin-6-yl)acetoxy)ethyl)benzoate] | 2320 | 180 | 530 | drastically downregulated | 340 |  |  |  |  |  |  |  | 
